This is an account of results in patent EP4332093A1, “SALT CONTAINING PIPERAZINE POLYCYCLIC DERIVATIVE, CRYSTAL FORM THEREOF, PREPARATION METHOD THEREFOR, AND USE THEREOF” (Shanghai Hansoh Biomedical Co., Ltd., priority 2021, dated 2022).

Where only a bound is given, the exact number is not on record here.

In one data set the target is T1, D3 receptor (Homo sapiens, UniProt P35462).
T1 construct: expressed in transfected cells
The experiment in a line: cAMP content in cells stably expressing D3 receptors (CHO-D3, forskolin, HTRF). It is filed as cell-based.

Data set [1] addresses T2, 5-HT2A receptor (Homo sapiens, UniProt P28223). The experiment in a line: Calcium ion mobility in cells stably expressing 5-HT2A receptors (Flp-In-CHO-5HT2A, FLIPR). It is filed as cell-based. Also on record: expressed in transfected cells. To be noted: Flp-In-CHO-5HT2A stable pool, 5HT stimulation.
The target of data set [2] is T2, 5-HT2A receptor. As to the kind of experiment: Radioligand binding assay, 5-HT2A receptor ([3H]-Ketanserin). Particulars: Human 5-HT2A Receptor membrane, [3H]-Ketanserin 2 nM; read-out: 5HT-2A Binding IC50. On the set-up: purchased PerkinElmer. As for the experimental part:
Determination of the binding ability of the compounds of the
present invention to 5-HT2A receptor
The objective of this test example is to determine the affinity of the compounds for 5-HT2A receptor.
Experimental buffer: 50 mM Tris-HCl pH 7.4, 4 mM CaCl2; washing liquor: 50 mM Tris-HCl pH 7.4, stored at 4°C; 0.5% PEI solution: 0.5 g PEI dissolved in 100 mL ddH2O, 4°C storage of spare.
5 µL of the test compounds (0.005 nM to 100 nM, 10 concentrations in total) and 100 µL of buffer were added to a 96-well assay plate. 1.5 µL of cell membrane and 300 µL of buffer were added to each well, and the plate was shaken at 600 rpm for 5 minutes. 100 µL of a mixed solution of buffer and [^3H]-Ketanserin (final concentration of 2 nM) was added to the reaction system per well, and the plate was shaken at 600 rpm for 5 minutes and incubated at 27°C for 30 min. The […]-96 GF/B filter plate pre-incubated with 0.5% PEI for 1 h was washed twice with the buffer (1 mL/well). The cell membrane suspension was added to the […]-96 GF/B filter plate, washed 4 times, and incubated at 55°C for 10 min. 40 µL of ULTIMA GOLD was added to each well, and liquid scintillation counting was carried out.
(§1) The CPM (Counts per minute) values were determined by TopCount. […] The 10 concentrations of the compound were from 100 nM to 0.005 nM after 3-fold dilution of the reaction system. The percent inhibition rate and ten-point concentration data were fitted to the parametric nonlinear logistic equation by using GraphPad prism to calculate the IC50 values of the compound.

Another data set addresses T3, dopamine D3 receptor (Homo sapiens, UniProt P35462).
T3 construct: purchased PerkinElmer ES-173-M400UA
As to the kind of experiment: Radioligand binding assay, dopamine D3 receptor ([3H]-methylspiperone). Particulars: Human Dopamine D3 Receptor membrane, [3H]-methylspiperone 0.5 nM. As for the experimental part: Determination of the binding ability of the compounds of the present invention to dopamine D3 receptor
The objective of this test example is to determine the affinity of the compounds for dopamine D3 receptor.
Experimental buffer: 50 mM Tris-HCl pH 7.4, 10 mm MgCl2; washing liquor: 50 mM Tris-HCl pH 7.4, stored at 4°C; 0.5% PEI solution: 0.5 g PEI dissolved in 100 mL ddH2O, 4°C storage of spare.
5 µL of the test compounds (0.005 nM to 100 nM, 10 concentrations in total) and 100 µL of buffer were added to a 96-well assay plate. 1 µL of cell membrane and 300 µL of buffer were added to each well, and the plate was shaken at 600 rpm for 5 minutes. 100 µL of a mixed solution of buffer and [^3H]-methylspiperone (final concentration of 0.5 nM) was added to the reaction system per well, and the plate was shaken at 600 rpm for 5 minutes and incubated at 27°C for 30 min. The UNIFII,TER-96 GF/B filter plate pre-incubated with 0.5% PEI for 1 h was washed twice with the buffer (1 mL/well). The cell membrane suspension was added to the […]-96 GF/B filter plate, washed 4 times, and incubated at 55°C for 10 min. 40 µL of ULTIMA GOLD was added to each well, and liquid scintillation counting was carried out.
as §1

Data set [3] can be described thus: Crystal form stability study of hydrochloride for 30 days. Particulars: HPLC peak area normalization. It is filed as physicochemical. Here is the method: The diluent 80% methanol solution was added to prepare a solution containing about 0.5 mg/mL hydrochloride. The mixture was sonicated for 30min to produce a clear solution. 1mL of the soluion was filtered and measured by HPLC. See "2.3.4" for the HPLC analysis method. The content of related substances was calculated according to the peak area normalization method, and the results are shown in Table 32 below. Table 32 HPLC data of hydrochloride in stability experimental conditions for 30 days

Data set [4] can be described thus: Salt form quantification (HPLC-ELSD). To be noted: HPLC-ELSD, external standard method. It is filed as physicochemical. As for the experimental part: The number of acids binding in the salt form was quantified by HPLC-ELSD test. An appropriate amount of NaCl was weighed, and a series of linear solutions of different concentrations with the diluent acetonitrile-water (50:50) was prepared. […] The above linear solution and hydrochloride samples solution was taken to filter. [table]

Data set [5] in a line: Hygroscopicity study of salt (DVS). It is filed as physicochemical. Particulars: 25°C, 0-95-0% RH. An excerpt:
The hygroscopicity of a drug refers to the characteristics of the drug's ability or degree of water absorption at a certain temperature and humidity. […] (DVS) was used to characterize the ability of drugs to absorb water under different humidity conditions. The instrument parameters are detailed in the table below. [table]

Data set [6] in a line: Stability study of salt (light, high temperature, high humidity; 5 and 10 days; HPLC related substances). It is filed as physicochemical. From the text: The chromatographic peak area normalization method was used to calculate the changes of related substances. [table]
Data set [7] can be described thus: Solubility of hydrochloride and free base in different media (37°C, 24 hours, HPLC). Particulars: for solubility at 24 h: thermodynamic from solid. It is filed as physicochemical. As for the experimental part:
The glass bottle was shaken overnight on an electrothermal constant temperature shaking tank, and the temperature was set to 37°C. After 24 hours, the sample solution was filtered with a 0.45 µm mixed water fiber filter membrane, and the subsequent filtrate was taken to test its content by HPLC. HPLC detection methods are described in "Stability Study Conditions". Table 24 Solubility of hydrochloride and free base in different pH buffers

T2 sequence (P28223 whole entry): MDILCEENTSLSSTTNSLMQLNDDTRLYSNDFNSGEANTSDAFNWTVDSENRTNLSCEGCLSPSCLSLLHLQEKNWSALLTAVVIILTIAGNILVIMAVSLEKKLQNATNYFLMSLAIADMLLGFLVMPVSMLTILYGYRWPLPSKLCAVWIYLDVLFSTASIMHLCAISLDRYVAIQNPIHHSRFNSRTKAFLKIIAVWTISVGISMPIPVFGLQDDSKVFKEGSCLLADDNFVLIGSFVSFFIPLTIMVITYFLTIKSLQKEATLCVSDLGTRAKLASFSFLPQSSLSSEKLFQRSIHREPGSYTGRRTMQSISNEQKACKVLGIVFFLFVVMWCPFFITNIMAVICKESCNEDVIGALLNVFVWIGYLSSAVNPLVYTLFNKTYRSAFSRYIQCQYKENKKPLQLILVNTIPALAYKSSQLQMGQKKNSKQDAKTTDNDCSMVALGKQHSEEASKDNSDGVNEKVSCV
T1 sequence (P35462 whole entry): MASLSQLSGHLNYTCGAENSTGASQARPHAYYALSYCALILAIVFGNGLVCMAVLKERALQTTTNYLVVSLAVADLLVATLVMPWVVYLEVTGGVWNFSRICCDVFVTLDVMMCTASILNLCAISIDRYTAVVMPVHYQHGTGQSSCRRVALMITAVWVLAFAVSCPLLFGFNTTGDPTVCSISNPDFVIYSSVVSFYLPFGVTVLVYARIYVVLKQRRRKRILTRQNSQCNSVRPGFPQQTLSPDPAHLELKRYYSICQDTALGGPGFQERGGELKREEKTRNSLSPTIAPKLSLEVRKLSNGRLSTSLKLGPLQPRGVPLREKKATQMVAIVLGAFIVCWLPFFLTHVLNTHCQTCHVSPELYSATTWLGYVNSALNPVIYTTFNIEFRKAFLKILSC
T3 sequence (P35462 whole entry): as above

What is called EC50 is the concentration that produces a half-maximal response. The IC50 is the concentration that inhibits the measured activity by half. At D3 receptor, `Cc1cnoc1C(=O)N[C@H]1C[C@H](CCN2CCN(c3cccc(Cl)c3Cl)CC2)C1` [Example 13A, N-(Trans-3-(2-(4-(2,3-dichlorophenyl)piperazin-1-yl)ethyl)cyclobutyl)-4-methylisox azole-5-carboxamide] gave an EC50 of 1.1 nM. The values for the IC50 at 5-HT2A receptor [1], on 5-HT2A receptor [2] and at dopamine D3 receptor were 11.7 nM, 1.81 nM and 1.36 nM, respectively.

Take `Cc1cc(C(=O)NC2CC(CCN3CCN(c4cccc(Cl)c4Cl)CC3)C2)on1` (stereo not shown) [Example 14A]: the EC50 at D3 receptor was 0.9 nM. Further, the IC50 on 5-HT2A receptor [1] was determined as 4.37 nM; at 5-HT2A receptor [2] it was 1.35 nM; at dopamine D3 receptor it was 0.34 nM.

`O=C(N[C@H]1C[C@H](CCN2CCN(c3cccc(Cl)c3Cl)CC2)C1)c1ccno1` [Example 15A, N-(Trans-3-(2-(4-(2,3-dichlorophenyl)piperazin-1-yl)ethyl)cyclobutyl)isoxazole-5-ca rboxamide] yielded an EC50 on D3 receptor of 0.7 nM. In addition, the IC50 on 5-HT2A receptor [1] came out at 3.14 nM; on 5-HT2A receptor [2], 0.98 nM; at dopamine D3 receptor, 0.31 nM.

`Cc1ncc(C(=O)NC2CC(CCN3CCN(c4cccc(Cl)c4Cl)CC3)C2)o1` (stereo not shown) [Example 16A] returned an EC50 on D3 receptor of 1.7 nM. Besides, the IC50 stood at 4.28 nM on 5-HT2A receptor [1], 1.8 nM at 5-HT2A receptor [2] and 0.33 nM at dopamine D3 receptor.

Compound `O=C(N[C@H]1C[C@H](CCN2CCN(c3cccc(Cl)c3Cl)CC2)C1)c1ccon1` [Example 17A, N-(Trans-3-(2-(4-(2,3-dichlorophenyl)piperazin-1-yl)ethyl)cyclobutyl)isoxazole-3-ca rboxamide] returned an EC50 on D3 receptor of 1.1 nM. The IC50 came to 20.8 nM at 5-HT2A receptor [1], 1.92 nM at 5-HT2A receptor [2] and 0.3 nM at dopamine D3 receptor.

`Cc1nc(C(=O)N[C@H]2C[C@H](CCN3CCN(c4cccc(Cl)c4Cl)CC3)C2)co1` [Example 18A, N-(Trans-3-(2-(4-(2,3-dichlorophenyl)piperazin-1-yl)ethyl)cyclobutyl)-2-methyloxazole-4-carboxamide] registered an EC50 on D3 receptor of 1.4 nM. The IC50 on 5-HT2A receptor [1] came out at 6.44 nM; on 5-HT2A receptor [2], 1.37 nM; on dopamine D3 receptor it was 0.42 nM.

`CN(C(=O)NC1CC(CCN2CCN(c3cccc(Cl)c3Cl)CC2)C1)C1CC1` (stereo not shown) [Example 20, 1-Cyclopropyl-3-(3-(2-(4-(2,3-dichlorophenyl)piperazin-1-yl)ethyl)cyclobutyl)-1-me thylurea] yielded an EC50 on D3 receptor of 1 nM. The IC50 was found to be 11.6 nM at 5-HT2A receptor [1], 19.1 nM at 5-HT2A receptor [2] and 1.99 nM at dopamine D3 receptor.

For orientation: solubility means the concentration that dissolves in the medium under given conditions. High values mean much dissolved substance, low ones little dissolved substance. In the case of `Cl.O=C(N[C@H]1C[C@H](CCN2CCN(c3cccc(Cl)c3Cl)CC2)C1)c1ncco1` [hydrochloride], the “Area% at RRT 1.00” value in data set [3] (0d) is 99.44%; in data set [3] (GS-30d), 99.43%; in data set [3] (GW-30d), 99.51%; in data set [3] (GZ-30d), 99.43%; in data set [3] (WS-30d), 99.46%. Further, the “Area% at RRT 1.07” value was found to be 0.07% in data set [3] (0d); 0.11% in data set [3] (GS-30d); 0.08% in data set [3] (GW-30d); 0.09% in [3] (GZ-30d); 0.09% in [3] (WS-30d). Besides, the “Area% at RRT 1.93” value in [3] (0d) is given as 0.42%; in data set [3] (GS-30d) it was 0.39%; in data set [3] (GW-30d), 0.41%; in data set [3] (GZ-30d), 0.41%; in data set [3] (WS-30d) it was 0.38%. In addition, the “Area% at RRT 2.43” value in [3] (0d) was determined as 0.07%; in data set [3] (GS-30d), 0.07%; in [3] (GZ-30d), 0.08%; in data set [3] (WS-30d), 0.07%. For the same compound, the entries for the “Determination of Cl-percentage content in hydrochloride” value in data set [4] (Batch 1) and in data set [4] (Batch 2) were 7.82% and 7.90%, respectively. The “hygroscopicity (DVS)” value in data set [5] is “slightly hygroscopic”. The “stability (growth of impurities)” value in [6] is reported as “good stability”. Further, the “solubility in different pH buffers” value in data set [7] was “pH-dependent, with better solubility under acidic conditions, poor solubility under neutral or alkaline conditions”. Further, the solubility at 24 h in [7] (aqueous buffer, Buffer pH 3) is more than 1 mg/mL; in data set [7] (aqueous buffer, Buffer pH 4), more than 1 mg/mL; in [7] (aqueous buffer, Buffer pH 5), 0.863 mg/mL; in data set [7] (aqueous buffer, Buffer pH 6), 0.187 mg/mL; in data set [7] (aqueous buffer, Buffer pH 7) it was 0.014 mg/mL; in data set [7] (aqueous buffer, Buffer pH 8), 0.001 mg/mL. Besides, the solubility at 24 h is more than 1 mg/mL in [7] (fassgf or other biorelevant, FaSSCoF); 0.117 mg/mL in [7] (fassgf or other biorelevant, FaSSGF); more than 1 mg/mL in data set [7] (fassgf or other biorelevant, FeSSCoF); more than 1 mg/mL in [7] (simulated gastric fluid, Buffer pH 1); more than 1 mg/mL in data set [7] (simulated gastric fluid, Buffer pH 2); more than 1 mg/mL in data set [7] (FaSSIF). The solubility at 24 h in data set [7] (FeSSIF) is more than 1 mg/mL; in [7] (water, H2O), more than 1 mg/mL. The “solubility in water compared with free base” value in data set [7] (water) was “greatly improved”.
